Measurements as given in publication PMC6709486, “Safety, Tolerability, Pharmacokinetics, and Drug Interaction Potential of SPR741, an Intravenous Potentiator, after Single and Multiple Ascending Doses and When Combined with β-Lactam Antibiotics in Healthy Subjects” (Antimicrobial Agents and Chemotherapy, 2019).
Peptide text beside a SMILES is read from it.

Test: clinical
Details: human, in vivo, iv, 400 mg; for AUC(0-inf): AUC0-inf
From the text: The drug-drug interaction study was a phase 1, single-center, multiarm, open-label, randomized, three-period crossover study. The objective was to evaluate the DDI potential and the PK of SPR741 coadministered with each of three partner antibiotics as well as the DDI and PK effects of three partner antibiotics administered alone and with SPR741. The study comprised a screening phase (day −28 to day −2), three treatment arms (day 1 to day 8 for each arm), and an end-of-study follow-up (day 9). Each subject participated in screening, one treatment arm, and the end-of-study follow-up. The maximum duration of participation for each subject was approximately 37 days. Subjects remained in the clinical unit from the day before dosing (day −1) to 24 h after the third and last dose period (day 8).
The DDI study consisted of three treatment arms with three dosing periods in each arm (days 1, 4, and 7). In random sequence, subjects received a single dose of study treatments with a 2-day washout period between each assigned treatment. In treatment arm 1, subjects received 400 mg of SPR741 i.v. over 1 h, 400 mg of SPR741 i.v. over 1 h plus 1.0 g of ceftazidime i.v. over 1 h, and 1.0 g of ceftazidime i.v. over 1 h. In treatment arm 2, subjects received 400 mg of SPR741 i.v. over 1 h, 400 mg of SPR741 i.v. over 1 h plus 4.5 g of piperacillin-tazobactam i.v. over 1 h, and 4.5 g of piperacillin-tazobactam i.v. over 1 h.
For both studies, maximum plasma concentration (Cmax), area under the concentration-time curve from time zero to the last measurable time point (AUC0-t), area under the concentration-time curve from time zero to infinity (AUC0-inf), time to maximum concentration (Tmax), terminal elimination rate constant (kel), terminal half-life (t1/2), terminal clearance (CL), and volume of distribution (V) were determined. PK parameters were determined using WinNonlin Phoenix, version 6.4.
For the SAD phase, blood samples were obtained predose (within 10 min), at 30 min following the start of infusion, at the end of infusion, and at 75, 90, 105, 120, and 150 min and 3, 4, 5, 6, 8, 10, 12, and 24 h following the start of infusion. For the MAD phase, blood was obtained predose (within 10 min), at 30 min following the start of infusion, at the end of infusion, and at 90 and 150 min and 3, 4, 5, 6, and 8 h following the start of infusion (day 1, first dose; day 14, last dose). Five additional blood samples were obtained at 10, 12, 24, 36, and 48 h following the start of infusion of the last dose (morning of day 14). For the DDI study, blood samples for determining plasma concentrations of SPR741 and each partner antibiotic were obtained predose (within −10 min), at 30 min, and at 1 h, 1 h 15 min, 1 h 30 min, 1 h 45 min, 2, 4, 8, 12, and 24 h postdose for each dose period. Plasma samples for drug concentration measurements were analyzed using a validated high-pressure liquid chromatography tandem mass spectrometry (HPLC-MS/MS) method. In brief, samples were spiked with a stable isotope-labeled internal standard and then extracted by protein precipitation before injection onto the HPLC-MS/MS system. Unique transitions were monitored for all test articles and internal standards. Plasma concentrations below the limit of quantitation were reported as 0.
In the SAD/MAD study, geometric means were calculated for AUC and Cmax values. Analyses using linear models were performed to assess dose proportionality (both single dose and multiple dose), time dependence, accumulation, and attainment of steady state (multiple dose). Dose proportionality was assessed using linear models for the SAD and MAD cohorts separately. […] Point estimates and 90% confidence intervals (CIs), using the residual mean square error obtained from the ANOVA, were constructed for the comparisons between treatments. The point and CI estimates were back-transformed to give estimates of the ratios (percentages) of the geometric LSMs and corresponding 90% CIs.

[1] = geometric LSM, reference treatment

CC(=O)N[C@H](C(=O)N[C@H](CO)C(=O)N[C@H]1CCNC(=O)[C@H]([C@@H](C)O)NC(=O)[C@H](CCN)NC(=O)[C@H](CCN)NC(=O)[C@H](CC(C)C)NC(=O)[C@@H](Cc2ccccc2)NC(=O)[C@H](CCN)NC1=O)[C@@H](C)O [SPR741] (HELM PEPTIDE1{[ac].T.[dS].[Dab].[Dab].[dF].L.[Dab].[Dab].T}$PEPTIDE1,PEPTIDE1,4:R3-10:R2$$$V2.0)
AUC0-inf, geometric LSM, reference treatment: 96,800 h·ng/ml
Tmax: 1 h
AUC(0-inf): 90300 ng·h/mL
AUC(0-inf) [1]: 79300 ng·h/mL
AUC0-t (AUC0-t): 89700 ng·h/mL
AUC (AUC0-τ, geometric LSM, reference treatment): 78700 ng·h/mL
clearance (CL): 75 mL/min
Cmax: 28100 ng/mL
Cmax [1]: 28800 ng/mL
Vd (V): 20.6 L
half-life (t1/2): 3.2 h
